Assay results taken from patent publication US11331314B2, “Amine substituted triazole derivatives and uses thereof” (Bayer Pharma Aktiengesellschaft, priority 2017, dated 2022).

Columns and labels:
human V1a receptor = human V1a receptor (Homo sapiens, UniProt P37288); assay: Cellular in vitro assay for determining vasopressin receptor activity, V1a receptor cell line (photoprotein luminescence); assay type: cell-based; settings: for IC50: CHO cell line transfected with the human V1a receptor, agonist [Arg8]-vasopressin at EC50 concentration, read-out: IC50 hV1a; for ratio IC50 hV2/hV1a: selectivity ratio of the cellular IC50 values
Procedure, shortened: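 CHO K1 cells stably expressing human V1a receptor with aequorin photoprotein, loaded overnight with coelenterazine. Compounds preincubated 10 min at various concentrations, then challenged with [Arg^8]-vasopressin at EC50 concentration. Calcium-driven luminescence read immediately; IC50 values derived.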

human V2 receptor = biological target: T1, human V2 receptor (Homo sapiens, UniProt P30518); assay: Cellular in vitro assay for determining vasopressin receptor activity, V2 receptor cell line (CRE-luciferase); assay type: cell-based; settings: CHO cell line transfected with the human V2 receptor; agonist [Arg8]-vasopressin at EC50 concentration; read-out: IC50 hV2
T1 construct: expressed in transfected cells; host or cells: CHO K1 (ATCC) expressing firefly luciferase under a CRE-responsive promoter
T1 sequence (P30518 whole entry): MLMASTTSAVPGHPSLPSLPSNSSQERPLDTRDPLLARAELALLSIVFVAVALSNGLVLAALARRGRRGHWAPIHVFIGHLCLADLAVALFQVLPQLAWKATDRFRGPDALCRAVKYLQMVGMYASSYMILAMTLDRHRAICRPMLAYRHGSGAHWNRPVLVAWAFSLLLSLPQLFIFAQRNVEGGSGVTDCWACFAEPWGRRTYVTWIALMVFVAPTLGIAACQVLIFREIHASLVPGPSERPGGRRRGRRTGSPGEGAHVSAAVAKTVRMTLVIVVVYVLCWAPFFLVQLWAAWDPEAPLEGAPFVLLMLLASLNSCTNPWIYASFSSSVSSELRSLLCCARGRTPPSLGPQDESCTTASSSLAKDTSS

Sequence of human V1a receptor (P37288 whole entry): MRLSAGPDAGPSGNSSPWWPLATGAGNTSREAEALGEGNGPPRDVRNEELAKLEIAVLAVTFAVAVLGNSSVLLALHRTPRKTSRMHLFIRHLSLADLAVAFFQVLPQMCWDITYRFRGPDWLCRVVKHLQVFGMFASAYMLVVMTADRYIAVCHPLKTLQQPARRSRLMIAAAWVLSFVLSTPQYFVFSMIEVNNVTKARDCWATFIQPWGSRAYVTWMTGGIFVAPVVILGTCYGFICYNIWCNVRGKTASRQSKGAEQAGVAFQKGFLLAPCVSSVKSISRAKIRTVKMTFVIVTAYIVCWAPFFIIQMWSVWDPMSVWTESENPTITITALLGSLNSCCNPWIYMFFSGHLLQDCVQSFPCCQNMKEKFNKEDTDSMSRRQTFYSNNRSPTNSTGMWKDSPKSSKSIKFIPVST

Row | Structure (SMILES) | IC50 (human V1a receptor) [nM] | ratio IC50 hV2/hV1a (human V1a receptor) | IC50 (human V2 receptor) [nM]
1 | O=c1n(Cc2nc(N3CCS(=O)(=O)CC3)n(CCC(F)(F)F)n2)nc(-c2ccc(Cl)cc2)n1C[C@H](O)C(F)(F)F [Example 100, 5-(4-Chlorophenyl)-2-{[5-(1,1-dioxidothiomorpholin-4-yl)-1-(3,3,3-trifluoropropyl)-1H-1,2,4-triazol-3-yl]methyl}-4-[(2S)-3,3,3-trifluoro-2-hydroxypropyl]-2,4-dihydro-3H-1,2,4-triazol-3-one] | 330 | 11.5 | 3800
2 | O=C1CC[C@H](CNc2nc(Cn3nc(-c4ccc(Cl)cc4)n(C[C@H](O)C(F)(F)F)c3=O)nn2CCC(F)(F)F)N1 [Example 101, 5-(4-Chlorophenyl)-2-{[5-({[(2R)-5-oxopyrrolidin-2-yl]methyl}amino)-1-(3,3,3-trifluoropropyl)-1H-1,2,4-triazol-3-yl]methyl}-4-[(2S)-3,3,3-trifluoro-2-hydroxypropyl]-2,4-dihydro-3H-1,2,4-triazol-3-one] | 29.5 | 17.3 | 510
3 | CC(C)(CNc1nc(Cn2nc(-c3ccc(Cl)cc3)n(C[C@H](O)C(F)(F)F)c2=O)nn1CCC(F)(F)F)NS(C)(=O)=O [Example 102, N-(1-{[3-({3-(4-Chlorophenyl)-5-oxo-4-[(2S)-3,3,3-trifluoro-2-hydroxypropyl]-4,5-dihydro-1H-1,2,4-triazol-1-yl}methyl)-1-(3,3,3-trifluoropropyl)-1H-1,2,4-triazol-5-yl]amino}-2-methylpropan-2-yl)methanesulfonamide] | 3.9 | 31.5 | 123
4 | O=C1CC[C@@H](CNc2nc(Cn3nc(-c4ccc(Cl)cc4)n(C[C@H](O)C(F)(F)F)c3=O)nn2CCC(F)(F)F)N1 [Example 109, 5-(4-Chlorophenyl)-2-{[5-({[(2S)-5-oxopyrrolidin-2-yl]methyl}amino)-1-(3,3,3-trifluoropropyl)-1H-1,2,4-triazol-3-yl]methyl}-4-[(2S)-3,3,3-trifluoro-2-hydroxypropyl]-2,4-dihydro-3H-1,2,4-triazol-3-one] | 9.4 | 41.0 | 385
5 | CC(C)(O)CNc1nc(Cn2nc(-c3ccc(Cl)cc3)n(C[C@H](O)C(F)(F)F)c2=O)nn1CCC(F)(F)F [Example 110, 5-(4-Chlorophenyl)-2-({5-[(2-hydroxy-2-methylpropyl)amino]-1-(3,3,3-trifluoropropyl)-1H-1,2,4-triazol-3-yl}methyl)-4-[(2S)-3,3,3-trifluoro-2-hydroxypropyl]-2,4-dihydro-3H-1,2,4-triazol-3-one] | 1.4 | 121.4 | 170
6 | CC(C)(N)CNc1nc(Cn2nc(-c3ccc(Cl)cc3)n(C[C@H](O)C(F)(F)F)c2=O)nn1CCC(F)(F)F [Example 111, 2-({5-[(2-Amino-2-methylpropyl)amino]-1-(3,3,3-trifluoropropyl)-1H-1,2,4-triazol-3-yl}methyl)-5-(4-chlorophenyl)-4-[(2S)-3,3,3-trifluoro-2-hydroxypropyl]-2,4-dihydro-3H-1,2,4-triazol-3-one] | 18.5 | 148.7 | 2750
7 | O=C1CN(c2nc(Cn3nc(-c4ccc(Cl)cc4)n(C[C@H](O)C(F)(F)F)c3=O)nn2CCC(F)(F)F)CCN1 [Example 112, 4-[3-({3-(4-Chlorophenyl)-5-oxo-4-[(2S)-3,3,3-trifluoro-2-hydroxypropyl]-4,5-dihydro-1H-1,2,4-triazol-1-yl}methyl)-1-(3,3,3-trifluoropropyl)-1H-1,2,4-triazol-5-yl]piperazin-2-one] | 114 | 7.1 | 810
8 | NC(=O)C1CN(c2nc(Cn3nc(-c4ccc(Cl)cc4)n(C[C@H](O)C(F)(F)F)c3=O)nn2CCC(F)(F)F)C1 [Example 113, 1-[3-({3-(4-Chlorophenyl)-5-oxo-4-[(2S)-3,3,3-trifluoro-2-hydroxypropyl]-4,5-dihydro-1H-1,2,4-triazol-1-yl}methyl)-1-(3,3,3-trifluoropropyl)-1H-1,2,4-triazol-5-yl]azetidine-3-carboxamide] | 37 | 9.7 | 360
9 | CC1(C)CN(c2nc(Cn3nc(-c4ccc(Cl)cc4)n(C[C@H](O)C(F)(F)F)c3=O)nn2CCC(F)(F)F)CCN1 [Example 114, 5-(4-Chlorophenyl)-2-{[5-(3,3-dimethylpiperazin-1-yl)-1-(3,3,3-trifluoropropyl)-1H-1,2,4-triazol-3-yl]methyl}-4-[(2S)-3,3,3-trifluoro-2-hydroxypropyl]-2,4-dihydro-3H-1,2,4-triazol-3-one] | 10.3 |  | 1800
10 | CCOC(=O)CNc1nc(Cn2nc(-c3ccc(Cl)cc3)n(C[C@H](O)C(F)(F)F)c2=O)nn1-c1cccc(Cl)c1 [Example 115, Ethyl N-[1-(3-chlorophenyl)-3-({3-(4-chlorophenyl)-5-oxo-4-[(2S)-3,3,3-trifluoro-2-hydroxypropyl]-4,5-dihydro-1H-1,2,4-triazol-1-yl}methyl)-1H-1,2,4-triazol-5-yl]glycinate] | 5.86 | 0.4 | 2.07
11 | COCCNc1nc(Cn2nc(-c3ccc(Cl)cc3)n(C[C@H](O)C(F)(F)F)c2=O)nn1-c1cccc(F)c1 [Example 116, 5-(4-Chlorophenyl)-2-({1-(3-fluorophenyl)-5-[(2-methoxyethyl)amino]-1H-1,2,4-triazol-3-yl}methyl)-4-[(2S)-3,3,3-trifluoro-2-hydroxypropyl]-2,4-dihydro-3H-1,2,4-triazol-3-one] | 1.35 | 1.5 | 1.98
12 | O=c1n(Cc2nc(N3CCCC3)n(-c3cccc(Cl)c3)n2)nc(-c2ccc(Cl)cc2)n1C[C@H](O)C(F)(F)F [Example 117, 5-(4-Chlorophenyl)-2-{[1-(3-chlorophenyl)-5-(pyrrolidin-1-yl)-1H-1,2,4-triazol-3-yl]methyl}-4-[(2S)-3,3,3-trifluoro-2-hydroxypropyl]-2,4-dihydro-3H-1,2,4-triazol-3-one] | 66.5 | 0.3 | 19.2
13 | CNc1nc(Cn2nc(-c3ccc(Cl)cc3)n(C[C@H](O)C(F)(F)F)c2=O)nn1-c1cccc(Cl)c1 [Example 118, 5-(4-Chlorophenyl)-2-{[1-(3-chlorophenyl)-5-(methylamino)-1H-1,2,4-triazol-3-yl]methyl}-4-[(2S)-3,3,3-trifluoro-2-hydroxypropyl]-2,4-dihydro-3H-1,2,4-triazol-3-one] | 16.4 | 0.1 | 1.04
14 | O=c1n(Cc2nc(N3CCOCC3)n(-c3cccc(F)c3)n2)nc(-c2ccc(Cl)cc2)n1C[C@H](O)C(F)(F)F [Example 119, 5-(4-Chlorophenyl)-2-{[1-(3-fluorophenyl)-5-(morpholin-4-yl)-1H-1,2,4-triazol-3-yl]methyl}-4-[(2S)-3,3,3-trifluoro-2-hydroxypropyl]-2,4-dihydro-3H-1,2,4-triazol-3-one] | 7.79 | 2.2 | 17.1
15 | CN(C)c1nc(Cn2nc(-c3ccc(Cl)cc3)n(C[C@H](O)C(F)(F)F)c2=O)nn1-c1cccc(F)c1 [Example 120, 5-(4-Chlorophenyl)-2-{[5-(dimethylamino)-1-(3-fluorophenyl)-1H-1,2,4-triazol-3-yl]methyl}-4-[(2S)-3,3,3-trifluoro-2-hydroxypropyl]-2,4-dihydro-3H-1,2,4-triazol-3-one] | 4.66 | 1.8 | 8.19
16 | O=c1n(Cc2nc(N3CCC3)n(-c3cccc(F)c3)n2)nc(-c2ccc(Cl)cc2)n1C[C@H](O)C(F)(F)F [Example 121, 2-{[5-(Azetidin-1-yl)-1-(3-fluorophenyl)-1H-1,2,4-triazol-3-yl]methyl}-5-(4-chlorophenyl)-4-[(2S)-3,3,3-trifluoro-2-hydroxypropyl]-2,4-dihydro-3H-1,2,4-triazol-3-one] | 6.4 | 1.0 | 6.12
17 | CC1(C)CN(c2nc(Cn3nc(-c4ccc(Cl)cc4)n(C[C@H](O)C(F)(F)F)c3=O)nn2-c2ncccc2Cl)CCN1 [Example 122, 5-(4-Chlorophenyl)-2-{[1-(3-chloropyridin-2-yl)-5-(3,3-dimethylpiperazin-1-yl)-1H-1,2,4-triazol-3-yl]methyl}-4-[(2S)-3,3,3-trifluoro-2-hydroxypropyl]-2,4-dihydro-3H-1,2,4-triazol-3-one] | 0.97 | 1606.2 | 1550
18 | O=c1n(Cc2nc(NCCO)n(-c3cccc(F)c3)n2)nc(-c2ccc(Cl)cc2)n1C[C@H](O)C(F)(F)F [Example 123, 5-(4-Chlorophenyl)-2-({1-(3-fluorophenyl)-5-[(2-hydroxyethyl)amino]-1H-1,2,4-triazol-3-yl}methyl)-4-[(2S)-3,3,3-trifluoro-2-hydroxypropyl]-2,4-dihydro-3H-1,2,4-triazol-3-one] | 2.15 | 2.1 | 4.59
